# Test results: US8809232B2, “Herbicidal compositions comprising 4-amino-3-chloro-5-fluoro-6-(4-chloro-2-fluoro-3-methoxyphenyl) pyridine-2-carboxylic acid or a derivative thereof and halosulfuron, pyrazosulfuron and esprocarb” (Dow Agrosciences LLC, priority 2012, dated 2014)
# Key:
# [1] = tested on: BRAPP; assay: Post-emergence foliar-applied herbicidal mixtures, greenhouse, direct seeded rice weeds; format: in vivo
# From the text: (§1) Seeds or nutlets of the desired test plant species were planted in a soil matrix prepared by mixing a loam or sandy loam soil (e.g., 28.6 percent silt, 18.8 percent clay, and 52.6 percent sand, with a pH of about 5.8 and an organic matter content of about 1.8 percent) and calcareous grit in an 80 to 20 ratio. The soil matrix was contained in plastic pots with a volume of 1 quart and a surface area of 83.6 square centimeters (cm^2). When required to ensure good germination and healthy plants, a fungicide treatment and/or other chemical or physical treatment was applied. The plants were grown for 8-22 days in a greenhouse with an approximate 14 hr photoperiod which was maintained at about 29° C. during the day and 26° C. during the night. Nutrients (Peters Excel® 15-5-15 5-Ca 2-Mg and iron chelate) were applied in the irrigation solution as needed and water was added on a regular basis. Supplemental lighting was provided with overhead metal halide 1000-Watt lamps as necessary. The plants were employed for testing when they reached the first through fourth true leaf stage.
# (§2) Treatments consisted of the acid or esters of 4-amino-3-chloro-5-fluoro-6-(4-chloro-2-fluoro-3-methoxy-phenyl)pyridine-2-carboxylic acid (Compound A), each formulated as an SC (suspension concentrate), and various herbicidal components alone and in combination. Forms of compound A were applied on an acid equivalent basis.
# (§3) Other herbicidal components were applied on an active ingredient basis and included the acetolactate synthase (ALS)-inhibiting herbicides halosulfuron-methyl formulated as Permit® 75 WDG, pyrazosulfuron-ethyl formulated as Agreen® WG or Sirius® G, and the VLCFA inhibiting herbicide esprocarb (technical grade material).
# (§4) Treatment requirements were calculated based upon the rates being tested, the concentration of active ingredient or acid equivalent in the formulation, and a 12 mL application volume at a rate of 187 L/ha.
# (§5) For treatments comprised of formulated compounds, measured amounts of compounds were placed individually in 25 mL glass vials and diluted in a volume of 1.25% (v/v) Agri-Dex® crop oil concentrated to obtain 12× stock solutions. […] Application solutions were prepared by adding an appropriate amount of each stock solution (e.g., 1 mL) and diluted to the appropriate final concentrations with the addition of 10 mL of an aqueous mixture of 1.25% (v/v) crop oil concentrate so that the final spray solutions contained 1.25+/−0.05% (v/v) crop oil concentrate.
# (§6) For treatments comprised of technical compounds, weighed amounts can be placed individually in 25 mL glass vials and dissolved in a volume of 97:3 v/v acetone/DMSO to obtain 12× stock solutions. […] Application solutions can be prepared by adding an appropriate amount of each stock solution (e.g., 1 mL) and diluted to the appropriate final concentrations with the addition of 10 mL of an aqueous mixture of 1.5% (v/v) crop oil concentrate so that the final spray solutions contain 1.25% (v/v) crop oil concentrate. When technical materials are used, the concentrated stock solutions can be added to the spray solutions so that the final acetone and DMSO concentrations of the application solutions are 16.2% and 0.5%, respectively.
# (§7) For treatments comprised of formulated and technical compounds, weighed amounts of the technical materials were placed individually in 25 mL glass vials and dissolved in a volume of 97:3 v/v acetone/DMSO to obtain 12× stock solutions, and measured amounts of the formulated compounds were placed individually in 25 mL glass vials and diluted in a volume of 1.5% (v/v) crop oil concentrate or water to obtain 12× stock solutions. […] Application solutions were prepared by adding an appropriate amount of each stock solution (e.g., 1 mL) and diluted to the appropriate final concentrations with the addition of an appropriate amount of an aqueous mixture of 1.5% (v/v) crop oil concentrate so that the final spray solutions contained 1.25% (v/v) crop oil concentrate. […]
# [2] = tested on: SCPJU; assay: In-water applied herbicidal mixtures, greenhouse, transplanted paddy rice weeds; format: in vivo, Schoenoplectus juncoides (Roxb.) Palla
# Method: (§8) Weed seeds or nutlets of the desired test plant species were planted in puddled soil (mud) prepared by mixing a shredded, non-sterilized mineral soil (50.5 percent silt, 25.5 percent clay, and 24 percent sand, with a pH of about 7.6 and an organic matter content of about 2.9 percent) and water at a 1:1 volumetric ratio. The prepared mud was dispensed in 365 mL aliquots into 16-ounce (oz.) non-perforated plastic pots with a surface area of 86.59 square centimeters (cm^2) leaving a headspace of 3 centimeters (cm) in each pot Mud was allowed to dry overnight prior to planting or transplanting. Rice seeds were planted in Sun Gro MetroMix® 306 planting mixture, which typically has a pH of 6.0 to 6.8 and an organic matter content of about 30 percent, in plastic plug trays. Seedlings at the second or third leaf stage of growth were transplanted into 840 mL of mud contained in 32-oz. non-perforated plastic pots with a surface area of 86.59 cm^2 4 days prior to herbicide application. The paddy was created by filling the headspace of the pots with 2.5 to 3 cm of water. When required to ensure good germination and healthy plants, a fungicide treatment and/or other chemical or physical treatment was applied. The plants were grown for 4-22 days in a greenhouse with an approximate 14 hr photoperiod which was maintained at about 29′C during the day and 26° C. during the night. Nutrients were added as Osmocote® (19:6:12, N:P:K^+ minor nutrients) at 2 g per 16-oz. pot and 4 g per 32-oz. pot. Water was added on a regular basis to maintain the paddy flood, and supplemental lighting was provided with overhead metal halide 1000-Watt lamps as necessary. The plants were employed for testing when they reached the first through fourth true leaf stage.
# as §2, with “(compound A)” for “(Compound A),”, “concentrate)” for “concentrate),”, “basis. […]” for “basis.”
# (§9) Treatment requirements for each compound or herbicidal component were calculated based upon the rates being tested, the concentration of active ingredient or acid equivalent in the formulation, an application volume of 2 mL per component per pot, and an application area of 86.59 cm^2 per pot.
# (§10) For formulated compounds, a measured amount was placed in an individual 100 or 200 mL glass vial and was dissolved in a volume of 1.25% (v/v) Agri-Dex® crop oil concentrate to obtain application solutions. […]
# [3] = tested on: DIGSA; assay: Post-emergence foliar-applied herbicidal mixtures, greenhouse, direct seeded rice weeds; format: in vivo, Digitaria sanguinalis (L.) Scop.
# From the text: as §1, §2, §3, §4, §5, §6, §7
# [4] = tested on: SCPMA; assay: In-water applied herbicidal mixtures, greenhouse, transplanted paddy rice weeds; format: in vivo
# Method: as §8
# as §2, with “(compound A)” for “(Compound A),”, “concentrate)” for “concentrate),”
# (§11) Other herbicidal components were applied on an active ingredient basis and included acetolactate synthase (ALS)-inhibiting herbicides formulated as Permit® 75 WDG, pyrazosulfuron-ethyl formulated as Agreen® WG or Sirius® G, and VLCFA inhibiting herbicide esprocarb (technical grade material).
# as §9
# (§12) For formulated compounds, a measured amount was placed in an individual 100 or 200 mL glass vial and was dissolved in a volume of 1.25% (v/v) Agri-Dex® crop oil concentrate to obtain application solutions.
# (§13) For technical grade compounds, a weighed amount was placed in an individual 100 to 200 mL glass vial and was dissolved in a volume of acetone to obtain concentrated stock solutions. […] The concentrated stock solutions obtained were diluted with an equivalent volume of an aqueous mixture containing 2.5% (v/v) crop oil concentrate so that the final application solutions contained 1.25% (v/v) crop oil concentrate.
# (§14) Applications were made by injecting with a pipetter appropriate amounts of the application solutions, individually and sequentially, into the aqueous layer of the paddy. Control plants were treated in the same manner with the solvent blank. Applications were made so that all treated plant material received the same concentrations of acetone and crop oil concentrate.
# (§15) The treated plants and control plants were placed in a greenhouse as described above and water was added as needed to maintain a paddy flood. […]
# [5] = tested on: ECHCO; assay: Post-emergence foliar-applied herbicidal mixtures, greenhouse, direct seeded rice weeds; format: in vivo, Echinochloa colona (L.) Link
# From the text: as §1, with “stage. […]” for “stage.”
# as §4
# For treatments comprised of formulated compounds, measured amounts of compounds were placed individually in 25 mL glass vials and diluted in a volume of 1.25% (v/v) Agri-Dex® crop oil concentrated to obtain 12× stock solutions. […]
# For treatments comprised of formulated and technical compounds, weighed amounts of the technical materials were placed individually in 25 mL glass vials and dissolved in a volume of 97:3 v/v acetone/DMSO to obtain 12× stock solutions, and measured amounts of the formulated compounds were placed individually in 25 mL glass vials and diluted in a volume of 1.5% (v/v) crop oil concentrate or water to obtain 12× stock solutions. […]
# [6] = tested on: FIMMI; assay: In-water applied herbicidal mixtures, greenhouse, transplanted paddy rice weeds; format: in vivo, Fimbristylis miliacea (L.) Vahl
# Method: as §8
# as §2, with “(compound A)” for “(Compound A),”, “concentrate)” for “concentrate),”
# as §11, §9, §12, §13
# Applications were made by injecting with a pipetter appropriate amounts of the application solutions, individually and sequentially, into the aqueous layer of the paddy. […]
# [7] = tested on: CYPRO; assay: as above; format: in vivo, Cyperus rotundus L.
# Method: as §8
# as §2, with “(compound A)” for “(Compound A),”, “concentrate)” for “concentrate),”
# as §11, §9, §12, §13, §14, §15
# [8] = tested on: ECHCG; assay: as above; format: in vivo, Echinochloa crus-galli (L.) Beauv.
# Method: as §8, with “Water was added on a regular basis to maintain the paddy flood, and supplemental lighting was provided with overhead metal halide 1000-Watt lamps as necessary. The plants were employed for testing when they reached the first through fourth true leaf stage.” left out
# as §9, §10
# [9] = tested on: ECHOR; assay: as above; format: in vivo, Echinochloa oryzoides (Ard.) Fritsch
# Method: as §8
# as §2, with “(compound A)” for “(Compound A),”, “concentrate)” for “concentrate),”
# as §11, §9, §12, §13, §14, §15
# [10] = tested on: LEFCH; assay: Post-emergence foliar-applied herbicidal mixtures, greenhouse, direct seeded rice weeds; format: in vivo, Leptochloa chinensis (L.) Nees
# From the text: as §1, §2, §3, §4, §5, §6, §7
structure (smiles),measurement,setting,value
"COc1c(Cl)ccc(-c2nc(C(=O)O)c(Cl)c(N)c2F)c1F [Compound A Acid, 4-amino-3-chloro-5-fluoro-6-(4-chloro-2-fluoro-3-methoxy-phenyl)pyridine-2-carboxylic acid]",Visual Weed Control (%) - 20 DAA BRAPP Obs,[1]; 4.38 g ae/ha,50%
same,Visual Weed Control (%) - 22 DAA BRAPP Obs,[1]; 4.38 g ae/ha,45%
same,Visual Weed Control (%) - 21 DAA SCPJU Obs,[2]; 8.75 g ae/ha,40%
same,Visual Weed Control (%) - 21 DAA SCPJU Obs,[2]; 17.5 g ae/ha,60%
same,Visual Weed Control (%) - 20 DAA DIGSA Obs,[3]; 21.2 g ae/ha,10%
same,Visual Weed Control (%) - 20 DAA DIGSA Obs,[3]; 42.4 g ae/ha,25%
same,Visual Weed Control (%) - 22 DAA SCPMA Obs,[4]; 8.75 g ae/ha,0%
same,Visual Weed Control (%) - 22 DAA SCPMA Obs,[4]; 17.5 g ae/ha,0%
same,Visual Weed Control (%) - 22 DAA SCPMA Obs,[4]; 35 g ae/ha,0%
same,Visual Weed Control (%) - 20 DAA SCPMA Obs,[4]; 42.4 g ae/ha,0%
same,Visual Weed Control (%) - 20 DAA SCPMA Obs,[4]; 84.8 g ae/ha,0%
same,Visual Weed Control (%) - 22 DAA ECHCO Obs,[5]; 4.38 g ae/ha,65%
same,Visual Weed Control (%) - 22 DAA ECHCO Obs,[5]; 8.75 g ae/ha,80%
same,Visual Weed Control (%) - 21 DAA FIMMI Obs,[6]; 8.75 g ae/ha,0%
same,Visual Weed Control (%) - 21 DAA FIMMI Obs,[6]; 17.5 g ae/ha,95%
same,Visual Weed Control (%) - 21 DAA CYPRO Obs,[7]; 8.75 g ae/ha,30%
same,Visual Weed Control (%) - 21 DAA CYPRO Obs,[7]; 17.5 g ae/ha,50%
same,Visual Weed Control (%) - 21 DAA CYPRO Obs,[7]; 35 g ae/ha,65%
same,Visual Weed Control (%) - 21 DAA ECHCG Obs,[8]; 8.75 g ae/ha,0%
same,Visual Weed Control (%) - 21 DAA ECHCG Obs,[8]; 17.5 g ae/ha,30%
same,Visual Weed Control (%) - 22 DAA ECHOR Obs,[9]; 8.75 g ae/ha,0%
same,Visual Weed Control (%) - 22 DAA ECHOR Obs,[9]; 17.5 g ae/ha,0%
same,Visual Weed Control (%) - 22 DAA ECHOR Obs,[9]; 35 g ae/ha,20%
same,Visual Weed Control (%) - 20 DAA ECHOR Obs,[9]; 42.4 g ae/ha,18%
same,Visual Weed Control (%) - 20 DAA ECHOR Obs,[9]; 84.8 g ae/ha,33%
"COC(=O)c1c(Cl)nn(C)c1S(=O)(=O)NC(=O)Nc1nc(OC)cc(OC)n1 [Halosulfuron-methyl, methyl 3-chloro-5-[[[[(4,6-dimethoxy-2-pyrimidinyl)amino]carbonyl]amino]sulfonyl]-1-methyl-1H-pyrazole-4-carboxylate, reference compound]",Visual Weed Control (%) - 20 DAA BRAPP Obs,[1]; 4.38 g ai/ha,0%
same,Visual Weed Control (%) - 20 DAA BRAPP Obs,[1]; 8.75 g ai/ha,0%
same,Visual Weed Control (%) - 20 DAA BRAPP Obs,[1]; 17.5 g ai/ha,0%
same,Visual Weed Control (%) - 20 DAA DIGSA Obs,[3]; 35 g ai/ha,10%
same,Visual Weed Control (%) - 20 DAA SCPMA Obs,[4]; 35 g ai/ha,65%
same,Visual Weed Control (%) - 21 DAA CYPRO Obs,[7]; 8.75 g ai/ha,60%
same,Visual Weed Control (%) - 21 DAA CYPRO Obs,[7]; 17.5 g ai/ha,100%
same,Visual Weed Control (%) - 21 DAA ECHCG Obs,[8]; 17.5 g ai/ha,0%
same,Visual Weed Control (%) - 20 DAA LEFCH Obs,[10]; 8.75 g ai/ha,0%
same,Visual Weed Control (%) - 20 DAA LEFCH Obs,[10]; 17.5 g ai/ha,0%
same,Visual Weed Control (%) - 20 DAA LEFCH Obs,[10]; 35 g ai/ha,5%
same,Visual Weed Control (%) - 21 DAA ECHOR Obs,[9]; 8.75 g ai/ha,0%
same,Visual Weed Control (%) - 21 DAA ECHOR Obs,[9]; 17.5 g ai/ha,0%
same,Visual Weed Control (%) - 20 DAA ECHOR Obs,[9]; 35 g ai/ha,0%
